The nature of the data set: RP, Thermo Scientific Acclaim RSLC 120 C18, 100 × 2.1 mm, 2.2 µm, 30 °C, 0.2 mL/min, estimated dead time 1.1 min; A: 90% water + 10% methanol + 0.01% formic acid + 5 mM ammonium formate, pH 3.61; B: methanol + 0.01% formic acid + 5 mM ammonium formate, pH 3.61; gradient (min/%B) 0/1 1/1 2/39 13/99.9 15/99.9 15.1/1 20.1/1. The following applies: stereoisomer not certain.
As for `CC(C)(C)C(=O)C(Oc1ccc(Cl)cc1)n1ccnc1` (stereo not drawn) [Climbazole], the LC retention time is 10.1 min.
As for `CCCSP(=S)(OCC)Oc1ccc(SC)cc1` (stereo not drawn) [Sulprofos (Bolstar)], the LC retention time was 12.8 min.
As to `Cc1ccccc1C(=O)Nc1cccc(OC(C)C)c1` [Mepronil], the LC retention time was 9.62 min.
Take `CCCCCn1cc(C(=O)NC(C(N)=O)C(C)(C)C)c2ccccc21` (stereo not drawn) [ADBICA]: the LC retention time is 11.1 min.
On to `CCCCOC(=O)N(C)SN(C)C(=O)Oc1cccc2c1OC(C)(C)C2` [Furathiocarb], for which the LC retention time is 12.1 min.
`C=CCNc1nc(NCC=C)nc(N2CCN(C(c3ccc(F)cc3)c3ccc(F)cc3)CC2)n1` [Almitrine]: the LC retention time is 13.4 min.
The result for `CCCCNC(=O)NS(=O)(=O)c1ccc(C)cc1` [Tolbutamide] reads 7.68 min.
As for `CCN(CC)CCNC(=O)c1ccc(N)cc1` [Procainamide], the figure is 2.83 min; as for `O=c1[nH]c(Cl)c(Cl)cc1Cl` [3.5.6-Trichloro-2-pyridinol], 8.96 min.
`CNC(=O)c1cc(Cl)cc(C)c1NC(=O)c1cc(Br)nn1-c1ncccc1Cl` [Chlorantraniliprole]: the LC retention time is 8.7 min.
In the case of `COC(=O)C1=C(C)NC(C)=C(C(=O)OCC(C)C)C1c1ccccc1[N+](=O)[O-]` (stereo not drawn) [Nisoldipine], the LC retention time was 10.6 min.
The result for `CCN(CC)CCOC(=O)C1(C2CCCCC2)CCCCC1` [Dicycloverine] reads 9.99 min; that for `Nc1c(Cl)c(Cl)nc(C(=O)O)c1Cl` [Picloram], 3.56 min.
On to `OC(c1ccc(Cl)cc1)(c1ccc(Cl)cc1)C(Cl)(Cl)Cl` [Dicofol], for which the LC retention time is 11.8 min.
Turning to `CC(CN(C)C)CN1c2ccccc2CCc2ccccc21` (stereo not drawn) [Trimipramine], the LC retention time is 8.31 min.
As for `O=C(NC(=O)c1c(F)cccc1F)Nc1ccc(CON=C(c2ccc(Cl)cc2)C2CC2)cc1` [Flucycloxuron], the LC retention time was 12.8 min.
`COc1ccc2[nH]cc(CC(C)N)c2c1` (stereo not drawn) [MeO-AMT (5-)]: the LC retention time is 4.36 min.
In the case of `CN=C1CN(O)C(c2ccccc2)=c2cc(Cl)ccc2=N1` [Chlordiazepoxide], the LC retention time is 8.79 min.
Regarding `O=C(Nc1ccc(F)cc1)c1cccc(Oc2cccc(C(F)(F)F)c2)n1` [Picolinafen], the LC retention time was 12.3 min.
Regarding `NNC(N)=O` [Semicarbazide (SEM)], the LC retention time was 1.33 min.
Take `O=C(Nc1cccc2ccccc12)c1nn(CCCCCF)c2ccccc12` [5-fluoro MN-18]: the LC retention time was 11.8 min.
In the case of `CCN(CC)CCOCCOC(=O)C1(c2ccccc2)CCCC1` [Pentoxyverine], the LC retention time is 7.87 min.
On to `CCOP(=O)(NC(C)C)Oc1ccc(SC)c(C)c1` (stereo not drawn) [Fenamiphos], for which the LC retention time is 10.4 min.
Consider `CN1CCC(=C2c3ccccc3CC(=O)c3sccc32)CC1` [Ketotifen], for which the LC retention time is 5.54 min.
As for `COC(=O)c1ccccc1C(=O)c1ccc(OCCN2CCCCC2)cc1` [Pitofenone], the figure is 5.44 min.
As for `CN(C)CCOC(=O)C(c1ccccc1)C1(O)CCCC1` (stereo not drawn) [Cyclopentolate], the LC retention time was 6.16 min.
Consider `O=S(=O)(c1ccc(O)cc1)c1ccc(O)cc1` [Bisphenol S], for which the LC retention time is 5.35 min.
For the compound `CCOC(=O)C(CCc1ccccc1)NC(C)C(=O)N1CC2(CC1C(=O)O)SCCS2` (stereo not drawn) [Spirapril], the LC retention time is 8.23 min.
As to `Cc1c(N)c(=O)n(-c2ccccc2)n1C` [Antipyrine-4-Amino (4-AAP)], the LC retention time was 4.69 min.
Consider `Nc1ccc(S(=O)(=O)O)c(N)c1` [2,4-Diaminobenzenesulfonic acid], for which the LC retention time was 1.36 min.
With `CC(C)(ON=C(C(=O)NC1C(=O)N2C(C(=O)[O-])=C(C[n+]3ccccc3)CSC12)c1csc(N)n1)C(=O)O` (stereo not drawn) [Ceftazidime], the LC retention time was 3.38 min.
Consider `COC(=O)C(C)Oc1cc(Cl)c(Cl)cc1Cl` (stereo not drawn) [Fenoprop-methylester  (Silvex-methyester)], for which the LC retention time is 11.5 min.
As for `CC(=O)C1(O)CCC2C3CC(C)C4=CC(=O)CCC4(C)C3CCC21C` (stereo not drawn) [Medroxyprogesterone], the figure is 10.7 min; as for `O=C(Oc1cccc2ccccc12)c1nn(CCCCCF)c2ccccc12` [SDB-005-5F], 12.1 min.
As for `CCCC(C(=O)c1ccc2ccccc2c1)N1CCCC1` (stereo not drawn) [Naphyrone], the LC retention time is 7.33 min.
Consider `CC(N)C(O)c1ccccc1` (stereo not drawn) [Cathine / Ephedrine-Nor (Cathin. Phenylpropanolamine)], for which the LC retention time was 3.68 min.
`CCOC(=O)C1(c2ccccc2)CCC=CC1NC` (stereo not drawn) [Tilidine-Nor]: the LC retention time is 5.28 min.
The result for `CCC(C)c1ccccc1OC(=O)NC` (stereo not drawn) [Fenobucarb] reads 9.05 min.
For `CCC(NC)C(=O)c1ccc(C)cc1` (stereo not drawn) [Buphedrone-4-Methyl], the LC retention time was 5.04 min.
As to `CCCNC(C)C(=O)Nc1ccccc1C` (stereo not drawn) [Prilocaine], the LC retention time was 4.69 min.
As for `Cc1nccn1CC1CCc2c(c3ccccc3n2C)C1=O` (stereo not drawn) [Ondansetron], the figure is 4.98 min.
The result for `O=C1Nc2ccc(Cl)cc2C(c2ccccc2Cl)=NC1O` (stereo not drawn) [Lorazepam] reads 8.36 min; that for `CC(C)=NOCCOC(=O)C(C)Oc1ccc(Oc2cnc3cc(Cl)ccc3n2)cc1` (stereo not drawn) [Propaquizafop], 12.3 min.
For `CC(C)c1nc(N(C)S(C)(=O)=O)nc(-c2ccc(F)cc2)c1C=CC(O)CC(O)CC(=O)O` (stereo not drawn) [Rosuvastatin], the LC retention time was 8.2 min.
As for `CNCC(O)c1ccc(O)cc1` (stereo not drawn) [Synephrine], the LC retention time was 1.6 min.
As for `Cc1ccccc1-n1c(C)nc2ccccc2c1=O` [Methaqualone], the figure is 7.83 min; as for `CN1CCCCC1Cn1cc(C(=O)C23CC4CC(CC(C4)C2)C3)c2ccccc21` (stereo not drawn) [AM-1248], 9.94 min.
Consider `CN(C)S(=O)(=O)c1ccc2c(c1)N(CCCN1CCC(CCO)CC1)c1ccccc1S2` [Pipotiazine], for which the LC retention time was 7.39 min.
For `N=c1nc(N2CCCCC2)cc(N)n1O` [Minoxidil], the LC retention time was 4.88 min.
For the compound `Cc1ccc(C(=O)c2ccc(CC(=O)O)n2C)cc1` [Tolmetin], the LC retention time was 7.89 min.
As for `CCOC(=O)C1CC(=O)C(=C(O)C2CC2)C(=O)C1` (stereo not drawn) [Trinexapac-ethyl], the figure is 8.45 min.
As for `CC1=NNC(=O)N(N=Cc2cccnc2)C1` [Pymetrozine], the LC retention time is 4.01 min.
As for `COCC(=O)N(c1c(C)cccc1C)C(C)C(=O)OC` (stereo not drawn) [Metalaxyl], the figure is 8.22 min; as for `FC(F)C(F)(F)OCC(Cn1cncn1)c1ccc(Cl)cc1Cl` (stereo not drawn) [Tetraconazole], 10.1 min.
For `CCNc1nc(Cl)nc(NC(C)CC)n1` (stereo not drawn) [Sebuthylazine], the LC retention time was 9.09 min.
The result for `CCCC(Cn1cncn1)c1ccc(Cl)cc1Cl` (stereo not drawn) [Penconazole] reads 10.8 min.
For the compound `CCCC(Cc1ccccc1)N1CCCC1` (stereo not drawn) [Prolintane], the LC retention time was 5.56 min.
`CC(Cc1ccccc1)N1C=C(NC(=O)N=C2C=CC(=O)C=C2)ON1` (stereo not drawn) [Mesocarb-P-Hydroxy]: the LC retention time was 7.24 min.
As for `c1cncc(C2CCCN2)c1` (stereo not drawn) [Nicotine-Nor], the figure is 2.44 min; as for `CC12CCC3c4cc(O)c(O)cc4CCC3C1CCC2=O` (stereo not drawn), 8.56 min; as for `Nc1ncnc2nc[nH]c12` [Adenine], 2.43 min.
With `CCC=CCC1=C(C)C(OC(=O)C2C(C=C(C)C)C2(C)C)CC1=O` (stereo not drawn) [Pyrethrins: Jasmolin I], the LC retention time was 13.3 min.
For the compound `COC(=O)C1C(OC(=O)c2ccccc2)CC2CCC1N2C` (stereo not drawn) [Cocaine], the LC retention time is 4.84 min.
As for `Cc1ccc(S(=O)(=O)NC(=O)NC2C3CCC(C)(C2O)C3(C)C)cc1` (stereo not drawn) [Glibornuride], the figure is 9.79 min; as for `CNCC(C)CN1c2ccccc2Sc2ccc(OC)cc21` (stereo not drawn) [Levomepromazine-Nor], 8.33 min.
`O=C(c1cccc2ccccc12)c1cn(CCCCCO)c2ccccc12` [JWH-018-M-N-5-OH-Pentyl]: the LC retention time is 10 min.
As for `Cc1c(C(C)C)c(=O)n(-c2ccccc2)n1C` [Propyphenazone], the figure is 7.23 min.
On to `N#CCCCCn1cc(C(=O)c2cccc3ccccc23)c2ccccc21` [AM-2232], for which the LC retention time is 9.69 min.
Take `c1ccc(C2CN3CCSC3=N2)cc1` (stereo not drawn) [Levamisol]: the LC retention time was 3.68 min.
Regarding `CCc1cccc(C)c1N(C(=O)C(=O)O)C(C)C(=O)O` (stereo not drawn), the LC retention time was 6.84 min.
As for `CC(NCCC(c1ccccc1)c1ccccc1)c1ccccc1` (stereo not drawn) [Fendiline], the LC retention time is 8.54 min.
The result for `CCN(CCO)CCCC(C)Nc1ccnc2cc(Cl)ccc12` (stereo not drawn) [Chloroquine-Hydroxy] reads 3.98 min.
Consider `CN(C)C(=O)Nc1ccccc1` [Fenuron], for which the LC retention time was 5.12 min.
Take `CNCCCC1c2ccccc2C=Cc2ccccc21` [Protriptyline]: the LC retention time was 7.99 min.
In the case of `Cln1nnc2ccccc21` [Benzotriazole-chloro], the LC retention time was 6.53 min.
The result for `C=CCOc1ccccc1OCC(O)CNC(C)C` (stereo not drawn) [Oxprenolol] reads 5.66 min; that for `CCCc1nn(C)c2c(=O)[nH]c(-c3cc(S(=O)(=O)N4CCN(CC)CC4)ccc3OCC)nc12` [HomoSildenafil], 7.84 min.
As to `CC(C)C1(NC(=O)C2CC3c4cccc5[nH]cc(c45)CC3N(C)C2)OC2(O)C3CCCN3C(=O)C(Cc3ccccc3)N2C1=O` (stereo not drawn) [Ergocristine-Dihydro], the LC retention time was 8.17 min.
